# In patent publication US20240246954A1, “COMPOSITIONS AND METHODS FOR INHIBITING KRAS” (TheRas, Inc., priority 2021, published 2024):
# Read-outs that look alike come from different tables or passages of the source.
# How the values were obtained:
# [1] = tested on: pERK in GP2d cells (KRAS G12D); assay: Cell-based pERK HTRF assay; conditions: 60 min incubation
# Experimental: Biological Example 3. Cell-Based pERK HTRF Assay
# pERK assay (Perkin Elmer) was used to determine the effectiveness of compounds in disrupting KRAS G12D protein/effector signaling in cells.
# On Day 1, cells (GP2d) were seeded into 96-well plates at 3×10^4 cells/well in 80 μl complete growth media (DMEM, 10% FBS).
# On Day 2, cells were treated with compounds at 0.25% DMSO. The source plate was created with compounds diluted in media at 5-fold the final assay concentration. The compounds were run in a 9-point concentration curve starting at 1 μM, with a half-log dilution between concentrations. 20 μL was transferred onto the cell plates (final volume in wells was 100 μL). Plates were harvested after 60 min incubation by aspirating media and adding kit-supplied 1× supplemented lysis buffer to all wells (50 μl per well). Plates were then placed on a plate shaker and incubated at 850 rpm for an additional 30 min.
# Antibody mixture solution is prepared by diluting aliquoted d2 and Eu Cryptate antibodies 1:20 in kit supplied detection buffer, mix the diluted antibodies solutions (1:1 v:v). Four μL of this solution is then added to a 384-well detection plate (Perkin Elmer; 6008230).
# Samples were homogenized by pipetting up and down and then transferred (16 μL of cell lysates) from the 96-well cell culture plate to two wells of the HTRF 384-well detection plate containing the antibody solution. Plates were centrifuged (524 g for 1 min) and allowed to incubate between 4 and 24 h at room temperature. Maximum signal is reached after 4 h incubation time and remains stable over a period of 24 hours. Therefore, readings can be made between 4 and 24 h of incubation. Plates were centrifuged again (524 g for 1 min), then analyzed on the EnVision plate reader using the following settings: Excitation 320 nm, Bandwidth 75 nm; Emission 615 nm, Bandwidth 85 nm; Gain 100%; Flashes 100; Lag 60 μs.
# [2] = molecular target: T1, Avi-KRAS G12D/Q25A (1-169) GppNHp/3×FLAG-PI3KCA (157-299) (Homo sapiens, UniProt P01116, G12D/Q25A); assay: HTRF PI3KCA-KRAS G12D/Q25A-GppNHp disruption assay; format: biochemical; conditions: 1 h incubation
# T1 construct: Avi-KRAS G12D/Q25A (1-169) GppNHp
# Method in brief: (§1)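 Compounds titrated from 100 μM in a 10-point series, incubated with protein mix 1 h at room temperature, then HTRF reagents a further 1 h. Time-resolved fluorescence read (excitation 320 nm, emission 615 nm); activity expressed as percentage of DMSO control.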
# [3] = molecular target: T2, Avi-KRAS G12D (1-169) GppNHp/RAF1 RBD-3×FLAG (52-151) (Homo sapiens, UniProt P01116, G12D); assay: HTRF Raf1-KRAS G12D-GppNHp disruption assay; format: biochemical; conditions: 1 h incubation
# T2 construct: Avi-KRAS G12D (1-169) GppNHp
# Method in brief: as §1
# T2 sequence (P01116 1-169 isoform P01116-2 G12D limits assumed): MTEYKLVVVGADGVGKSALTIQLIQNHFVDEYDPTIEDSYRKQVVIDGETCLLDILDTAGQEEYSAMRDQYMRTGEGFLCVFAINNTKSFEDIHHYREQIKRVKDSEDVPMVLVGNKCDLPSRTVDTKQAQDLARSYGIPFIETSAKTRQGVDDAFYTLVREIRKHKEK
# T1 sequence (P01116 1-169 isoform P01116-2 G12D/Q25A limits assumed): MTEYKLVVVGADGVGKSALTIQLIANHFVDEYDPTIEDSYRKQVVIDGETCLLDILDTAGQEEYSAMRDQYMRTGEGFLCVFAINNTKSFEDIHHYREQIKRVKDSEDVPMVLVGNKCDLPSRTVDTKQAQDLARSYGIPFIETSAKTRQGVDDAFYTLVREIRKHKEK
SMILES,"IC50 ([1]; GP2d, 1 h) [µM]",IC50 [2] [µM],IC50 [3] [µM],IC50 ([1]; read-out: pERK-Gp2D-1hr) [µM]
"N#Cc1c(N)sc2c(F)ccc(-c3c(C(F)(F)F)cc4c(N5CC6CCC(C5)N6)nc(OC[C@@]56CCCN5C[C@H](F)C6)nc4c3F)c12 (single isomer, unassigned) [Compound 366]",≤ 0.1,≤ 0.1,≤ 0.1,–
"N#Cc1c(N)sc2c(F)ccc(-c3c(C(F)(F)F)cc4c(N5CC6CCC(C5)N6)nc(OC[C@@]56CCCN5C[C@H](F)C6)nc4c3F)c12 (single isomer, unassigned) [Compound 367]",–,1 to 10,1 to 10,0.1 to 1
CN1CCC[C@H]1COc1nc(NC2CNC2)c2cc(-c3ccoc3)c(-c3ccc(F)c4sc(N)nc34)c(F)c2n1 [Compound 133],> 1,1 to 10,0.1 to 1,–
CN1C[C@H](F)C[C@H]1COc1nc(N2C[C@H]3NCC[C@H]32)c2cc(C(F)(F)F)c(-c3ccc(F)c4sc(N)nc34)c(F)c2n1 [Compound 174],> 1,–,1 to 10,–
"Nc1nc2c(-c3c(Cl)cc4c(N5CC6CC(C5)N6)nc(OCC56CCCN5CCC6)nc4c3F)ccc(F)c2s1 [Compound 184, 4-(4-(3,6-diazabicyclo[3.1.1]heptan-3-yl)-6-chloro-8-fluoro-2-((tetrahydro-1H-pyrrolizin-7a(5H)-yl)methoxy)quinazolin-7-yl)-7-fluorobenzo[d]thiazol-2-amine]",> 1,1 to 10,0.1 to 1,–
Nc1nc2c(-c3c(C(F)(F)F)cc4c(N5CC6CC(C5)N6)nc(OCC56CCCN5CCC6)nc4c3F)ccc(F)c2s1 [Compound 185],0.1 to 1,0.1 to 1,0.1 to 1,–
C[C@@H]1CN(c2nc(OC[C@@]34CCCN3C[C@H](F)C4)nc3c(F)c(-c4ccc(F)c5sc(N)nc45)c(C(F)(F)F)cc23)[C@@H](C)CN1 [Compound 207],≤ 0.1,1 to 10,0.1 to 1,–
"Nc1nc2c(-c3c(C(F)(F)F)cc4c(N5CC6CCC(C5)N6)nc(OC[C@@]56CCCN5C[C@H](F)C6)nc4c3F)ccc(F)c2o1 [Compound 220, 4-(4-(3,8-diazabicyclo[3.2.1]octan-3-yl)-8-fluoro-2-(((2R,7aS)-2-fluorotetrahydro-1H-pyrrolizin-7a(5H)-yl)methoxy)-6-(trifluoromethyl)quinazolin-7-yl)-7-fluorobenzo[d]oxazol-2-amine]",≤ 0.1,0.1 to 1,0.1 to 1,–
Nc1nc2c(-c3c(C(F)(F)F)cc4c(N5CC6CCC5CN6)nc(OC[C@@]56CCCN5C[C@H](F)C6)nc4c3F)ccc(F)c2s1 (stereo partly drawn) [Compound 223],≤ 0.1,0.1 to 1,0.1 to 1,–
Nc1nc2c(-c3c(OC(F)(F)F)cc4c(N5CC6CCC(C5)N6)nc(OC[C@@]56CCCN5C[C@H](F)C6)nc4c3F)ccc(F)c2s1 [Compound 232],≤ 0.1,10 to 30,0.1 to 1,–
"Nc1nc2c(-c3c(C(F)(F)F)cc4c(N5C[C@H]6CC[C@@H](C5)N6)nc(OCC5(CN6CCOCC6)CC5)nc4c3F)ccc(F)c2s1 [Compound 251, 4-(4-((1R,5S)-3,8-diazabicyclo[3.2.1]octan-3-yl)-8-fluoro-2-((1-(morpholinomethyl)cyclopropyl)methoxy)-6-(trifluoromethyl)quinazolin-7-yl)-7-fluorobenzo[d]thiazol-2-amine]",≤ 0.1,1 to 10,0.1 to 1,–
Nc1nc2c(-c3c(C(F)(F)F)cc4c(N5CC6CCC(C5)N6)nc(OCC5(CN6CC[C@@H](F)C6)CC5)nc4c3F)ccc(F)c2s1 [Compound 252],≤ 0.1,0.1 to 1,0.1 to 1,–
"Nc1nc2c(-c3c(C(F)(F)F)cc4c(N5C[C@H]6CC[C@@H](C5)N6)nc(OC[C@@]56CCCN5C[C@H](F)C6)nc4c3Cl)ccc(F)c2s1 [Compound 256, 4-(4-((1R,5S)-3,8-diazabicyclo[3.2.1]octan-3-yl)-8-chloro-2-(((2R,7aS)-2-fluorotetrahydro-1H-pyrrolizin-7a(5H)-yl)methoxy)-6-(trifluoromethyl)quinazolin-7-yl)-7-fluorobenzo[d]thiazol-2-amine]",≤ 0.1,0.1 to 1,0.1 to 1,–
N#Cc1cc2c(N3CC4CCC(C3)N4)nc(OC[C@@]34CCCN3C[C@H](F)C4)nc2c(F)c1-c1ccc(F)c2sc(N)nc12 [Compound 258],≤ 0.1,0.1 to 1,0.1 to 1,–
CO[C@H]1CN2CCC[C@@]2(COc2nc(N3CC4CCC(C3)N4)c3cc(C(F)(F)F)c(-c4ccc(F)c5sc(N)nc45)c(F)c3n2)C1 [Compound 261],≤ 0.1,0.1 to 1,0.1 to 1,–
C[C@@H]1CN(c2nc(OC[C@@]34CCCN3C[C@H](F)C4)nc3c(F)c(-c4ccc(F)c5sc(N)nc45)c(C(F)F)cc23)[C@@H](C)CN1 [Compound 302],–,1 to 10,1 to 10,–
CN(c1nc(OC[C@@]23CCCN2C[C@H](F)C3)nc2cc(-c3ccc(F)c4sc(N)nc34)c(C(F)(F)F)cc12)[C@H]1CNC[C@@H]1F [Compound 362],–,10 to 30,10 to 30,–

# Now from value to compound, other results behind:
"IC50 ([1]; GP2d, 1 h) [µM]",IC50 [2] [µM],IC50 [3] [µM],SMILES,IC50 ([1]; read-out: pERK-Gp2D-1hr) [µM]
> 1,1 to 10,0.1 to 1,"CN(c1nc(OCC23CCCN2CCC3)nc2c(F)c(-c3ccc(F)c4sc(N)nc34)c(C(F)(F)F)cc12)[C@@H]1CCN(C(=O)CN)C1 (atropisomer, axis not shown) [Compound 276]",–
> 1,0.1 to 1,0.1 to 1,"CN(c1nc(OCC23CCCN2CCC3)nc2c(F)c(-c3ccc(F)c4sc(N)nc34)c(C(F)(F)F)cc12)[C@@H]1CCNC1 (single isomer, unassigned) [Compound 236]",–
0.1 to 1,1 to 10,0.1 to 1,"CN(c1nc(OC[C@@]23CCCN2C[C@H](F)C3)nc2c(F)c(-c3ccc(F)c4sc(N)nc34)c(C(F)(F)F)cc12)C1CCNC1 (stereo in doubt) [Compound 322, 7-fluoro-4-(8-fluoro-2-(((2R,7aS)-2-fluorotetrahydro-1H-pyrrolizin-7a(5H)-yl)methoxy)-4-(methyl((R)-pyrrolidin-3-yl)amino)-6-(trifluoromethyl)quinazolin-7-yl)benzo[d]thiazol-2-amine]",–
> 1,1 to 10,1 to 10,N#CCc1cc2c(NC3CNC3)nc(OCC34CCCN3CCC4)nc2c(F)c1-c1ccc(F)c2sc(N)nc12 [Compound 126],–
> 1,1 to 10,0.1 to 1,NCC(=O)N1CCN(c2nc(OCC34CCCN3CCC4)nc3c(F)c(-c4ccc(F)c5sc(N)nc45)c(C(F)(F)F)cc23)CC1 [Compound 127],–
> 1,1 to 10,0.1 to 1,CN1CCC[C@H]1COc1nc(NC2CNC2)c2cc(C(F)(F)F)c(-c3ccc(F)c4sc(N)nc34)c(F)c2n1 [Compound 129],–
> 1,1 to 10,0.1 to 1,NCC(=O)N1CC(Nc2nc(OCC34CCCN3CCC4)nc3c(F)c(-c4ccc(F)c5sc(N)nc45)c(C(F)(F)F)cc23)C1 [Compound 187],–
> 1,1 to 10,0.1 to 1,NC(=O)N1CC(Nc2nc(OCC34CCCN3CCC4)nc3c(F)c(-c4ccc(F)c5sc(N)nc45)c(C(F)(F)F)cc23)C1 [Compound 188],–
> 1,1 to 10,0.1 to 1,Nc1nc2c(-c3c(C(F)(F)F)cc4c(NC5CNC5)nc(OCC56CCCN5CCC6)nc4c3F)ccc(F)c2o1 [Compound 199],–
≤ 0.1,0.1 to 1,0.1 to 1,Nc1nc2c(-c3c(C(F)(F)F)cc4c(N5CC6CC5CN6)nc(OC[C@@]56CCCN5C[C@H](F)C6)nc4c3F)ccc(F)c2s1 (stereo partly drawn) [Compound 226],–
> 1,0.1 to 1,0.1 to 1,Nc1nc2c(-c3c(C(F)(F)F)cc4c(NC5CNC5)nc(OC[C@@]56CCCN5C[C@H](F)C6)nc4c3F)ccc(F)c2s1 [Compound 247],–
–,1 to 10,0.1 to 1,Nc1nc2c(-c3c(C(F)(F)F)cc4c(N5CCC6(CNC6)C5)nc(OCC56CCCN5CCC6)nc4c3F)ccc(F)c2s1 [Compound 307],–
–,1 to 10,0.1 to 1,Nc1nc2c(-c3c(C(F)(F)F)cc4c(N5CCC6(CCNC6)CC5)nc(OCC56CCCN5CCC6)nc4c3F)ccc(F)c2s1 [Compound 308],–
–,10 to 30,10 to 30,Fc1c(-c2ccc(F)c3scnc23)c(C(F)(F)F)cc2c(N3CC4CCC(C3)N4)nc(OCC34CCCN3CCC4)nc12 [Compound 375],–
